In brackets after ≈: the same amount, converted by molar mass. Activity calls are given as the source filed them. The rule behind the calls is not given here. Positions of bridges follow the written chain, without caps; N, C: chain ends. Residues, ends and D or L forms follow the SMILES beside them. Groups on a side chain read outwards from the residue. Chains are numbered I, II in the order given. *: point of attachment. Lauroyl = CCCCCCCCCCCC(=O)*; Octanoyl = CCCCCCCC(=O)*; Butyryl = CCCC(=O)*
Columns and labels:
Candida albicans [1] = test: Antifungal activity against fluconazole-resistant Candida albicans 56214 infected in ICR mouse assessed as reduction in severity of skin infection at 1 mg/ml administered topically bid for 3 days starting at 12 hrs post-infection and measured after 7 days by PAS staining based analysis; type: functional, organism-based; conditions: time 7.0 day
Candida albicans [2] = test: Antifungal activity against fluconazole-resistant Candida albicans 56214 infected in ICR mouse assessed as reduction in IL-6 expression in skin wound at 1 mg/ml administered topically bid for 3 days starting at 12 hrs post-infection and measured after 7 days by immunofluorescence analysis; type: functional, organism-based; conditions: time 7.0 day
Candida albicans [3] = test: Antifungal activity against fluconazole-resistant Candida albicans 56214 infected in ICR mouse assessed as wound healing with appearance of new skin tissue at 1 mg/ml administered topically bid for 3 days starting at 12 hrs post-infection and measured for 6 days; type: functional, organism-based; conditions: time 6.0 day
Candida albicans [4] = test: Antifungal activity against fluconazole-resistant Candida albicans 56214 infected in ICR mouse assessed as reduction in TNF-alpha expression in skin wound at 1 mg/ml administered topically bid for 3 days starting at 12 hrs post-infection and measured after 7 days by immunofluorescence analysis; type: functional, organism-based; conditions: time 7.0 day
Candida albicans [5] = test: Antifungal activity against fluconazole-resistant Candida albicans 56214 infected in ICR mouse assessed as reduction in oxidative stress by measuring decrease in ROS accumulation in skin wounds at 1 mg/ml administered topically bid for 3 days starting at 12 hrs post-infection and measured after 7 days by fluorescence staining based analysis; type: functional, organism-based; conditions: time 7.0 day
Candida albicans [6] = test: Antifungal activity against fluconazole-resistant Candida albicans 56214 infected in ICR mouse assessed as elimination of fungal hyphae on the infected skin at 1 mg/ml administered topically bid for 3 days starting at 12 hrs post-infection and measured after 7 days by PAS staining; type: functional, organism-based; conditions: time 7.0 day
Candida albicans [7] = test: Antifungal activity against Candida albicans 14936 assessed as inhibition of fungal growth incubated for 48 hrs; type: functional
Candida albicans [8] = test: Antifungal activity against Candida albicans SP 3903 assessed as inhibition of fungal growth incubated for 48 hrs; type: functional
[9] = Toxicity against human RBC assessed as hemolysis rate at 128 ug/ml incubated for 1 hr; type: cell-based, Erythrocyte; conditions: red blood cells (RBC), dose 128 µg/ml, read-out: Activity
Candida albicans [10] = test: Antifungal activity against fluconazole-resistant Candida albicans 56214 assessed as inhibition of fungal growth incubated for 48 hrs; type: functional
Candida albicans [11] = test: Antifungal activity against Candida albicans cgmcc 2.2086 assessed as inhibition of fungal growth incubated for 48 hrs; type: functional
Candida albicans [12] = test: Antifungal activity against Candida albicans 2.3989 assessed as inhibition of fungal growth incubated for 48 hrs; type: functional
Candida albicans [13] = test: Antifungal activity against Candida albicans SP 3931 assessed as inhibition of fungal growth incubated for 48 hrs; type: functional
Candida albicans [14] = test: Antifungal activity against Candida albicans 58288 assessed as inhibition of fungal growth incubated for 48 hrs; type: functional
Candida albicans [15] = test: Antifungal activity against Candida albicans 17546 assessed as inhibition of fungal growth incubated for 48 hrs; type: functional
Candida albicans [16] = test: Antifungal activity against Candida albicans SP 3902 assessed as inhibition of fungal growth incubated for 48 hrs; type: functional
[17] = Cytotoxicity against human HEK293T cells assessed as cell survival rate at 128 ug/ml incubated for 4 hrs by MTT assay; type: toxicity, cell-based, HEK-293T; conditions: dose 128 µg/ml, read-out: Activity
HEK-293T = test: Cytotoxicity against human HEK293T cells assessed as cell viability at 8 to 128 ug/ml incubated for 4 hrs by MTT assay; type: toxicity, cell-based; conditions: dose 8-128 µg/ml
[18] = Cytotoxicity against mouse RAW264.7 cells assessed as cell survival rate at 128 ug/ml incubated for 4 hrs by MTT assay; type: toxicity, cell-based; conditions: dose 128 µg/ml, read-out: Activity

C[C@@H]1[C@H](O)[C@@H](C)/C=C/C=C/C=C/C=C/C=C/C=C/C=C/[C@H](O[C@@H]2O[C@H](C)[C@@H](O)[C@H](N)[C@@H]2O)C[C@@H]2O[C@](O)(C[C@@H](O)C[C@@H](O)[C@H](O)CC[C@@H](O)C[C@@H](O)CC(=O)O[C@H]1C)C[C@H](O)[C@H]2C(=O)O
Activity (Candida albicans [1]): Active | Activity (Candida albicans [2]): Active | Activity (Candida albicans [3]): Active | Activity (Candida albicans [4]): Active | Activity (Candida albicans [5]): Active | Activity (Candida albicans [6]): Active

CCCC(=O)NCC(=O)NCC(=O)NCC(=O)N[C@@H](CCCCNC(=O)[C@@H]1CCCN1C(=O)[C@H](CCCNC(=N)N)NC(=O)[C@@H]1CCCN1C(=O)[C@@H](N)CCCNC(=N)N)C(=O)N[C@@H](CCCCNC(=O)[C@@H]1CCCN1C(=O)[C@H](CCCNC(=N)N)NC(=O)[C@@H]1CCCN1C(=O)[C@@H](N)CCCNC(=N)N)C(=O)N[C@@H](CCCNC(=N)N)C(=O)N1CCC[C@H]1C(=O)N[C@@H](CCCNC(=N)N)C(=O)N1CCC[C@H]1C(N)=O (Butyryl-GGGK([Pro-Arg-Pro-Arg])K([Pro-Arg-Pro-Arg])RPRP-NH2)
MIC (Candida albicans [7]): > 128 µM | MIC (Candida albicans [8]): > 128 µM | hemolysis at 1 h, 128 ug/ml [9]: < 2% | MIC (Candida albicans [10]): > 128 µM | MIC (Candida albicans [11]): > 128 µM | MIC (Candida albicans [12]): > 128 µM | MIC (Candida albicans [13]): > 128 µM | MIC (Candida albicans [14]): > 128 µM | MIC (Candida albicans [15]): > 128 µM | MIC (Candida albicans [16]): > 128 µM | viability at 4 h, 128 ug/ml [17]: 95% | Activity (HEK-293T): Non-toxic

CCCCCCCCCCCC(=O)NCC(=O)NCC(=O)NCC(=O)N[C@@H](CCCCNC(=O)[C@@H]1CCCN1C(=O)[C@H](CCCNC(=N)N)NC(=O)[C@@H]1CCCN1C(=O)[C@H](CCCNC(=N)N)NC(=O)[C@@H]1CCCN1C(=O)[C@@H](N)CCCNC(=N)N)C(=O)N[C@@H](CCCCNC(=O)[C@@H]1CCCN1C(=O)[C@H](CCCNC(=N)N)NC(=O)[C@@H]1CCCN1C(=O)[C@H](CCCNC(=N)N)NC(=O)[C@@H]1CCCN1C(=O)[C@@H](N)CCCNC(=N)N)C(=O)N[C@@H](CCCNC(=N)N)C(=O)N1CCC[C@H]1C(=O)N[C@@H](CCCNC(=N)N)C(=O)N1CCC[C@H]1C(=O)N[C@@H](CCCNC(=N)N)C(=O)N1CCC[C@H]1C(N)=O (I: Lauroyl-GGGKKRPRPRP-NH2 / II: H-RPRPRP / III: H-RPRPRP; amide I:4-II:C, I:5-III:C)
MIC (Candida albicans [7]): 16 µM (≈ 46.5 µg/mL) | MIC (Candida albicans [8]): 8 µM (≈ 23.3 µg/mL) | hemolysis at 1 h, 128 ug/ml [9]: < 2% | viability at 4 h, 128 ug/ml [18]: 50% | MIC (Candida albicans [10]): 8 µM (≈ 23.3 µg/mL) | MIC (Candida albicans [11]): 16 µM (≈ 46.5 µg/mL) | MIC (Candida albicans [12]): 64 µM (≈ 186 µg/mL) | MIC (Candida albicans [13]): 32 µM (≈ 93 µg/mL) | MIC (Candida albicans [14]): 32 µM (≈ 93 µg/mL) | MIC (Candida albicans [15]): 32 µM (≈ 93 µg/mL) | MIC (Candida albicans [16]): 8 µM (≈ 23.3 µg/mL) | viability at 4 h, 128 ug/ml [17]: 95% | Activity (HEK-293T): Non-toxic

CCCCCCCC(=O)NCC(=O)NCC(=O)NCC(=O)N[C@@H](CCCCNC(=O)[C@@H]1CCCN1C(=O)[C@H](CCCNC(=N)N)NC(=O)[C@@H]1CCCN1C(=O)[C@H](CCCNC(=N)N)NC(=O)[C@@H]1CCCN1C(=O)[C@@H](N)CCCNC(=N)N)C(=O)N[C@@H](CCCCNC(=O)[C@@H]1CCCN1C(=O)[C@H](CCCNC(=N)N)NC(=O)[C@@H]1CCCN1C(=O)[C@H](CCCNC(=N)N)NC(=O)[C@@H]1CCCN1C(=O)[C@@H](N)CCCNC(=N)N)C(=O)N[C@@H](CCCNC(=N)N)C(=O)N1CCC[C@H]1C(=O)N[C@@H](CCCNC(=N)N)C(=O)N1CCC[C@H]1C(=O)N[C@@H](CCCNC(=N)N)C(=O)N1CCC[C@H]1C(N)=O (I: Octanoyl-GGGKKRPRPRP-NH2 / II: H-RPRPRP / III: H-RPRPRP; amide I:4-II:C, I:5-III:C)
MIC (Candida albicans [7]): 4 µM (≈ 11.4 µg/mL) | MIC (Candida albicans [8]): 8 µM (≈ 22.8 µg/mL) | hemolysis at 1 h, 128 ug/ml [9]: < 2% | MIC (Candida albicans [10]): 8 µM (≈ 22.8 µg/mL) | MIC (Candida albicans [11]): 2 µM (≈ 5.7 µg/mL) | MIC (Candida albicans [12]): 64 µM (≈ 182 µg/mL) | MIC (Candida albicans [13]): 16 µM (≈ 45.6 µg/mL) | MIC (Candida albicans [14]): 8 µM (≈ 22.8 µg/mL) | MIC (Candida albicans [15]): 4 µM (≈ 11.4 µg/mL) | MIC (Candida albicans [16]): 16 µM (≈ 45.6 µg/mL) | viability at 4 h, 128 ug/ml [17]: 95% | Activity (HEK-293T): Non-toxic

CCCCCCCCCCCC(=O)NCC(=O)NCC(=O)NCC(=O)N[C@@H](CCCCNC(=O)[C@@H]1CCCN1C(=O)[C@H](CCCNC(=N)N)NC(=O)[C@@H]1CCCN1C(=O)[C@@H](N)CCCNC(=N)N)C(=O)N[C@@H](CCCCNC(=O)[C@@H]1CCCN1C(=O)[C@H](CCCNC(=N)N)NC(=O)[C@@H]1CCCN1C(=O)[C@@H](N)CCCNC(=N)N)C(=O)N[C@@H](CCCNC(=N)N)C(=O)N1CCC[C@H]1C(=O)N[C@@H](CCCNC(=N)N)C(=O)N1CCC[C@H]1C(N)=O (Lauroyl-GGGK([Pro-Arg-Pro-Arg])K([Pro-Arg-Pro-Arg])RPRP-NH2)
MIC (Candida albicans [7]): 32 µM (≈ 68.7 µg/mL) | MIC (Candida albicans [8]): 64 µM (≈ 137 µg/mL) | hemolysis at 1 h, 128 ug/ml [9]: < 2% | MIC (Candida albicans [10]): 64 µM (≈ 137 µg/mL) | MIC (Candida albicans [11]): 16 µM (≈ 34.3 µg/mL) | MIC (Candida albicans [12]): 64 µM (≈ 137 µg/mL) | MIC (Candida albicans [13]): 64 µM (≈ 137 µg/mL) | MIC (Candida albicans [14]): 64 µM (≈ 137 µg/mL) | MIC (Candida albicans [15]): 32 µM (≈ 68.7 µg/mL) | MIC (Candida albicans [16]): 32 µM (≈ 68.7 µg/mL) | viability at 4 h, 128 ug/ml [17]: 95% | Activity (HEK-293T): Non-toxic

CCCCCCCC(=O)NCC(=O)NCC(=O)NCC(=O)N[C@@H](CCCCNC(=O)[C@@H]1CCCN1C(=O)[C@H](CCCNC(=N)N)NC(=O)[C@@H]1CCCN1C(=O)[C@@H](N)CCCNC(=N)N)C(=O)N[C@@H](CCCCNC(=O)[C@@H]1CCCN1C(=O)[C@H](CCCNC(=N)N)NC(=O)[C@@H]1CCCN1C(=O)[C@@H](N)CCCNC(=N)N)C(=O)N[C@@H](CCCNC(=N)N)C(=O)N1CCC[C@H]1C(=O)N[C@@H](CCCNC(=N)N)C(=O)N1CCC[C@H]1C(N)=O (Octanoyl-GGGK([Pro-Arg-Pro-Arg])K([Pro-Arg-Pro-Arg])RPRP-NH2)
MIC (Candida albicans [7]): > 128 µM | MIC (Candida albicans [8]): > 128 µM | hemolysis at 1 h, 128 ug/ml [9]: < 2% | MIC (Candida albicans [10]): > 128 µM | MIC (Candida albicans [11]): > 128 µM | MIC (Candida albicans [12]): > 128 µM | MIC (Candida albicans [13]): > 128 µM | MIC (Candida albicans [14]): > 128 µM | MIC (Candida albicans [15]): > 128 µM | MIC (Candida albicans [16]): > 128 µM | viability at 4 h, 128 ug/ml [17]: 95% | Activity (HEK-293T): Non-toxic

OC(Cn1cncn1)(Cn1cncn1)c1ccc(F)cc1F [FLUCONAZOLE]
MIC (Candida albicans [7]): 2 µM (≈ 0.613 µg/mL) | MIC (Candida albicans [8]): 2 µM (≈ 0.613 µg/mL) | MIC (Candida albicans [10]): > 128 µM | MIC (Candida albicans [11]): 4 µM (≈ 1.23 µg/mL) | MIC (Candida albicans [12]): 4 µM (≈ 1.23 µg/mL) | MIC (Candida albicans [13]): 2 µM (≈ 0.613 µg/mL) | MIC (Candida albicans [14]): 8 µM (≈ 2.45 µg/mL) | MIC (Candida albicans [15]): 2 µM (≈ 0.613 µg/mL) | MIC (Candida albicans [16]): 4 µM (≈ 1.23 µg/mL)
